Data published in US12185721B2, “Glycoside compound of fatty acids, composition comprising it, process for its obtention and methods to apply it on plants or fruits or both at the same time” (Consejo Nacional de Investigaciones Científicas y Técnicas …, priority 2020, dated 2025).
No end group written: not given here.

Assays:
Salmonella Newport = conditions: described values; cited from earlier work
Bacillus subtilis = conditions: described values; cited from earlier work
Rhodococcus fascians = conditions: values described for other antimicrobial compounds; cited from earlier work
Listeria monocytogenes = conditions: described values; cited from earlier work
Micrococcus sp. = conditions: described values; cited from earlier work
[1] = tested on: Colletotrichum fragariae F7; conditions: described values; cited from earlier work
[2] = tested on: Colletotrichum gloeosporioides L9; conditions: described values; cited from earlier work
[3] = tested on: Colletotrichum acutatum M11; conditions: described values; cited from earlier work
Penicillum digitatum = conditions: described values; cited from earlier work
P. digitatum = experiment: Protection against postharvest diseases in fruits of lemon tree, preventive effect; type: in vivo, Penicillum digitatum; conditions: Imazalil 500 ppm
Botritys cinerea = conditions: described values; cited from earlier work
Citrobacter sp. = conditions: described values; cited from earlier work
Pseudomona aeruginosa = conditions: described values; cited from earlier work
Escherichia coli MC 4100 = conditions: described values; cited from earlier work
Proteus sp. = conditions: described values; cited from earlier work
[4] = tested on: Enterococcus faecium CRL35; conditions: described values; cited from earlier work
[5] = tested on: Staphylococcus epidermidis; conditions: described values; cited from earlier work
Staphylococcus aureus = conditions: described values; cited from earlier work
Colletotrichum acutatum = experiment: Test for resistance to disease in strawberry plants (anthracnose); type: in vivo; conditions: salicylic acid 5 mM; acibenzolar-s-methyl 1 mM
Description: Healthy plants of the cv“Pájaro” (“Bird”) 3 months old of Fragaria×ananassa from in vitro tissue cultures, with the FLs compounds at a preferred concentration of 0.03 μg/ml were sprayed and 5 days later they were exposed to the pathogen fungus Colletotrichum acutatum, causative agent of the anthracnose disease (European Journal of Plant Pathology, (2007) 117, 109-122). The infected plants were incubated in a growth chamber under optimal conditions for the proliferation of the fungi and the development of the disease (28° C., 80% of relative humidity and a photoperiod of 16 hours). Seven days after incubation, the gravity symptoms of petiole disease were assessed according to the scale proposed by Delp and Milholland (Plant Disease, (1980), 64(12), 1071-1073), that assigns values of gravity comprised between 1 (healthy plant) and 5 (very grave or dead plant). As positive controls of the induction of a defense against pathogens, the treatment with FLs was replaced by salicylic acid 5 mM or 1 mM of […] or BTH, a salicylic acid analogous that induces a […] defense in plants. It is worth noting that the FLs, BTH and salicylic acid concentrations used were subinhibitory for C. acutatum growth. As a negative control of defense induction, the plants were sprayed with sterile distilled water.

P. digitatum (blue mold) = experiment: Test for resistance to diseases in strawberry fruits, controlled conditions of growth; type: in vivo, Penicillum digitatum; conditions: FLs 10 μg/ml, HeT 0.8 mg/ml, sodium hypochlorite 4%
Description: (§1) Fruits inoculated under controlled conditions of growth: Healthy and ripe strawberries collected in the field were disinfected by means of washing in ethanol at 70%, sodium hypochlorite at 10% and sterile water. The disinfected fruits were immersed in an FLs solution (10 μg/ml) and incubated at 25° C., 90% of humidity and 16 hours of photoperiod. After 2 days of incubation, the surface of the treated fruits was inoculated with a fungus spore suspension of 20 μl ([…]) of B. cinerea or P. digitatum, and were incubated in the same growth conditions above described. Seven days after the pathogen inoculation, the incidence (% of infected fruits) and the severity (degree of affected fruit surface) of the disease were assessed. The fruits sprayed with a solution of sodium hypochlorite at 4% were used as a protection positive control and the sterile fruits treated with water, as negative controls. Besides, a treatment with the plant defense inducer HeT (0.8 mg/ml) was included. The FL and HeT concentrations were subinhibitory for fungal growth.

B. cinerea (gray mold) = experiment: as above; type: in vivo, Botrytis cinerea; conditions: FLs 10 μg/ml, HeT 0.8 mg/ml, sodium hypochlorite 4%
Description: as §1

[6] = tested on: C. michiganensis cytoplasmic membrane; experiment: Test for depolarization of membranes, diSC3(5) fluorescence; type: cell-based; conditions: FLs 60 μg/ml; valinomycin 1 μM; C. michiganensis cells
Description: To study the possible mechanism underlying the FLs antimicrobial activity, the effect of the application of FLs upon C. michiganensis cytoplasmic membrane was assessed (FIG. 4), by using the cyanine stain method with 3,3′-Dipropylthiadicarbocianine iodide (diSC3 (5)) (Biochemistry (1999), 38(22), 7235-7242.).
The depolarization of the membrane in the bacterium C. michiganensis as controlled through changes in the intensity of the fluorescence emission of the diSC3 (5) membrane-sensitive stain (Biochemistry, (1999), 38(22), 7235-7242.). C. michiganensis was grown in LB liquid medium and incubated in a stirrer (120 rpm) at 26° C., up to the growth in a median logarithmic phase (OD600=0.5). The harvested cells were centrifuged and washed once (glucose 5 mM and HEPES 20 mM pH 7.3) and were suspended again up to a final OD600 final=0.05 in the same buffer. […]
After the addition of 0.4 μM de diSC3 (5), the sample cells that contained bacterial cells were incubated at 26° C. until a stable reduction of the fluorescence (about 5 minutes) was reached, what indicated the incorporation of the stain into the bacterial membrane. Afterwards, the FLs, valinomycin or water were added and the stain fluorescence increase at 622 nm (excitation wavelength) and 670 nm (emission wavelength) with a RF-5301 PC spectrofluorometer (Shimadzu, Kyoto, Japan) was recorded. […]

Xanthomonas fragariae = conditions: described values; cited from earlier work

NCC[C@H](O)C(=O)N[C@@H]1C[C@H](N)[C@@H](O[C@H]2O[C@H](CN)[C@@H](O)[C@H](O)[C@H]2O)[C@H](O)[C@H]1O[C@H]1O[C@H](CO)[C@@H](O)[C@H](N)[C@H]1O [Amikasin]
CE50 (μg/ml) for commercial antimicrobial (Salmonella Newport): Amikasin 2 μg/ml

CC[C@H]1OC(=O)[C@H](C)[C@@H](O[C@H]2C[C@@](C)(OC)[C@@H](O)[C@H](C)O2)[C@H](C)[C@@H](O[C@@H]2O[C@H](C)C[C@H](N(C)C)[C@H]2O)[C@](C)(O)C[C@@H](C)CN(C)[C@H](C)[C@@H](O)[C@]1(C)O [Azythromicin]
CE50 (μg/ml) for commercial antimicrobial (Bacillus subtilis): Azythromicin 2 μg/ml | CE50 (μg/ml) for commercial antimicrobial (Rhodococcus fascians): Azythromicin 0.5 μg/ml | CE50 (μg/ml) for commercial antimicrobial (Listeria monocytogenes): Azythromicin 0.5 μg/ml | CE50 (μg/ml) for commercial antimicrobial (Micrococcus sp.): Azythromicin 0.12 μg/ml

CCCCNC(=O)n1c(NC(=O)OC)nc2ccccc21 [Benomyl]
CE50 (μg/ml) for commercial antimicrobial [1]: Benomyl 0.29 μg/ml | CE50 (μg/ml) for commercial antimicrobial [2]: Benomyl 0.29 μg/ml

O=C1C2CC=CCC2C(=O)N1SC(Cl)(Cl)Cl (stereo not shown) [Captan]
CE50 (μg/ml) for commercial antimicrobial [3]: Captan 1 μg/ml

CC[C@H]1OC(=O)[C@H](C)[C@@H](O[C@H]2C[C@@](C)(OC)[C@@H](O)[C@H](C)O2)[C@H](C)[C@@H](O[C@@H]2O[C@H](C)C[C@H](N(C)C)[C@H]2O)[C@](C)(OC)C[C@@H](C)C(=O)[C@H](C)[C@@H](O)[C@]1(C)O [Clarythromicin]
CE50 (μg/ml) for commercial antimicrobial (Bacillus subtilis): Clarythromicin 0.12 μg/ml | CE50 (μg/ml) for commercial antimicrobial (Rhodococcus fascians): Clarythromicin 0.06 μg/ml | CE50 (μg/ml) for commercial antimicrobial (Listeria monocytogenes): Clarythromicin 0.12 μg/ml | CE50 (μg/ml) for commercial antimicrobial (Micrococcus sp.): Clarythromicin 0.06 μg/ml

CC[C@H]1OC(=O)[C@H](C)[C@@H](O[C@H]2C[C@@](C)(OC)[C@@H](O)[C@H](C)O2)[C@H](C)[C@@H](O[C@@H]2O[C@H](C)C[C@H](N(C)C)[C@H]2O)[C@](C)(O)C[C@@H](C)C(=O)[C@H](C)[C@@H](O)[C@]1(C)O [Erythromycin]
CE50 (μg/ml) for commercial antimicrobial (Bacillus subtilis): Erythromycin 0.25 μg/ml | CE50 (μg/ml) for commercial antimicrobial (Rhodococcus fascians): Erythromycin 0.25 μg/ml | CE50 (μg/ml) for commercial antimicrobial (Listeria monocytogenes): Erythromycin 0.25 μg/ml | CE50 (μg/ml) for commercial antimicrobial (Micrococcus sp.): Erythromycin 0.12 μg/ml

C=CCOC(Cn1ccnc1)c1ccc(Cl)cc1Cl (stereo not shown) [Imazalil]
CE50 (μg/ml) for commercial antimicrobial (Penicillum digitatum): Imazalil 6 μg/ml | protection of lemons compared with FLs 0.1 mg/ml (P. digitatum): comparable | CE50 (μg/ml) for commercial antimicrobial (Botritys cinerea): Imazalil 8 μg/ml

C[C@@H](O)[C@H]1C(=O)N2C(C(=O)O)=C(S[C@@H]3CN[C@H](C(=O)N(C)C)C3)[C@H](C)[C@H]12 [Meropenem]
CE50 (μg/ml) for commercial antimicrobial (Citrobacter sp.): Meropenem 0.02 μg/ml | CE50 (μg/ml) for commercial antimicrobial (Pseudomona aeruginosa): Meropenem 0.2 μg/ml | CE50 (μg/ml) for commercial antimicrobial (Escherichia coli MC 4100): Meropenem 0.01 μg/ml | CE50 (μg/ml) for commercial antimicrobial (Proteus sp.): Meropenem 0.1 μg/ml

CN[C@H](CC(C)C)C(=O)N[C@H]1C(=O)N[C@@H](CC(N)=O)C(=O)N[C@H]2C(=O)N[C@H]3C(=O)N[C@H](C(=O)N[C@H](C(=O)O)c4cc(O)cc(O)c4-c4cc3ccc4O)[C@H](O)c3ccc(c(Cl)c3)Oc3cc2cc(c3O[C@@H]2O[C@H](CO)[C@@H](O)[C@H](O)[C@H]2O[C@H]2C[C@](C)(N)[C@H](O)[C@H](C)O2)Oc2ccc(cc2Cl)[C@H]1O [Vancomycin]
CE50 (μg/ml) for commercial antimicrobial [4]: Vancomycin 0.78 μg/ml | CE50 (μg/ml) for commercial antimicrobial [5]: Vancomycin 1.56 μg/ml | CE50 (μg/ml) for commercial antimicrobial (Staphylococcus aureus): Vancomycin 0.78 μg/ml

CSC(=O)c1cccc2nnsc12 [acibenzolar-s-methyl]
protection against anthracnose compared with FLs (Colletotrichum acutatum): comparable

O=C(O)c1ccccc1O [salicylic acid]
protection against anthracnose compared with FLs (Colletotrichum acutatum): comparable

OCl [sodium hypochlorite, reference compound]
reduction of blue mold incidence (P. digitatum (blue mold)): 50% | reduction of blue mold severity (P. digitatum (blue mold)): 40% | reduction of gray mold incidence (B. cinerea (gray mold)): 70% | reduction of gray mold severity (B. cinerea (gray mold)): 45%

CC(C)[C@@H]1NC(=O)[C@H](C)OC(=O)[C@@H](C(C)C)NC(=O)[C@@H](C(C)C)OC(=O)[C@H](C(C)C)NC(=O)[C@H](C)OC(=O)[C@@H](C(C)C)NC(=O)[C@@H](C(C)C)OC(=O)[C@H](C(C)C)NC(=O)[C@H](C)OC(=O)[C@@H](C(C)C)NC(=O)[C@@H](C(C)C)OC1=O [valinomycin, reference compound]
increase of diSC3 (5) fluorescence (membrane depolarization) [6]: induced a fluorescence increase similar to the one seen with the FL compound

Cecropin B (KWKVFKKIEKMGRNIRNGIVKAGPAIAVLGEAKAL; ends and bridges not checked; UniProt P01508 27-61, looked up) [commercial antimicrobial]
CE50 (μg/ml) for commercial antimicrobial (Xanthomonas fragariae): Cecropin B 0.04 μg/ml
